Results reported in patent US12501900B2, “Heterocyclyl pyridazine as fungicidal compounds” (Bayer Aktiengesellschaft, priority 2018, dated 2025).
Read-outs that look alike come from different tables or passages of the source. One block for each compound: values may come before it.

Assay: Measurement of LogP values by HPLC on reversed phase columns (EEC directive 79/831 Annex V.A8), methods [a], [b], [c]
Assay type: physicochemical
Experimental: Measurement of Log P values as provided herein was performed according to EEC directive 79/831 Annex V.A8 by HPLC (High Performance Liquid Chromatography) on reversed phase columns with the following methods: • ^[a]
If more than one Log P value is available within the same method, all the values are given and separated by “+”.
Lambda-max-values were determined using UV-spectra from 200 nm to 400 nm and the peak values of the chromatographic signals

[1] = method [a]: LC-UV, acidic range, 0.1% formic acid in water and acetonitrile, Table 3, compounds of formula (1)
[2] = method [a], Table 19, compounds of formula (12), two values joined by & in some cells
[3] = method [a]: LC-UV, acidic range, 0.1% formic acid in water and acetonitrile, Table 15, compounds of formula (9)
[4] = method [a]: LC-UV, acidic range, 0.1% formic acid in water and acetonitrile, Table 11, compounds of formula (6)
[5] = method [a]: LC-UV, acidic range, 0.1% formic acid in water and acetonitrile, Table 7, compounds of formula (3)
[6] = method [a]: LC-UV, acidic range, 0.1% formic acid in water and acetonitrile, Table 17, compounds of formula (10)
[7] = method [a], Table 9, compounds of formula (4)

SMILES: Cc1c(Cl)nnc(Oc2cccc(C3CC3)c2F)c1C(=O)O [1-02, 6-chloro-3-(3-cyclopropyl-2-fluoro-phenoxy)-5-methyl-pyridazine-4-carboxylic acid]
- chromatographic logP [1]: 1.84

SMILES: C=CCON=C(N)c1cc(C)nnc1Oc1cccc(C(F)(F)F)c1 [13-01, N′-allyloxy-6-methyl-3-[3-(trifluoromethyl)phenoxy]pyridazine-4-carboxamidine]
- chromatographic logP (method [a]: LC-UV, acidic range, 0.1% formic acid in water and acetonitrile, Table 21, compounds of formula (13)): 2.88

SMILES: O/N=C/c1cc(Cl)nnc1Oc1cccc(C(F)(F)F)c1 [17-01, 6-chloro-3-[3-(trifluoromethyl)phenoxy]pyridazine-4-carbaldehyde oxime]
- chromatographic logP (reversed phase HPLC column, method [a]: LC-UV, acidic range, 0.1% formic acid in water and acetonitrile, Table 27, compound of formula (17)): 2.88

SMILES: Cc1cc(C(N)=NOCC(=O)c2ccc(Cl)cc2)c(Oc2cccc(C(F)(F)F)c2)nn1 [12-03, N′-[2-(4-chlorophenyl)-2-oxo-ethoxy]-6-methyl-3-[3-(trifluoro-methyl)phenoxy]pyridazine-4-carboxamidine]
- chromatographic logP [2]: 3.42

SMILES: Cc1ccc(CC2CON=C(c3cc(Cl)nnc3Cl)N2)c(C)c1 (racemic) [7-01, rac-3-(3,6-dichloropyridazin-4-yl)-5-[(2,4-dimethylphenyl)methyl]-5,6-dihydro-4H-1,2,4-oxadiazine]
- chromatographic logP (method [a]: LC-UV, acidic range, 0.1% formic acid in water and acetonitrile, Table 13, compounds of formula (7)): 2.98

SMILES: Cc1ccc(OCC(CON2C(=O)c3ccccc3C2=O)NC(=O)OC(C)(C)C)c(C)c1 (racemic) [2-13, tert-butyl N-[rac-1-[(2,4-dimethylphenoxy)methyl]-2-(1,3-dioxoisoindolin-2-yl)oxy-ethyl]carbamate]
- chromatographic logP (method [a]: LC-UV, acidic range, 0.1% formic acid in water and acetonitrile, Table 5, compounds of formula (2)): 4.51

SMILES: N#Cc1cc(Cl)nnc1Oc1cccc(C(F)(F)F)c1 [9-03, 6-chloro-3-[3-(trifluoromethyl)phenoxy]pyridazine-4-carbonitrile]
- chromatographic logP [3]: 3.25

SMILES: Cc1cc(C#N)c(Oc2cccc(C(F)(F)F)c2)nn1 [9-02, 6-methyl-3-[3-(trifluoromethyl)phenoxy]pyridazine-4-carbonitrile]
- chromatographic logP [3]: 2.84

SMILES: Cc1cc(C2=NOCC(O)N2)c(Oc2cccc(C(F)(F)F)c2)nn1 (racemic) [14-01, rac-3-[6-methyl-3-[3-(trifluoromethyl)phenoxy]pyridazin-4-yl]-5,6-dihydro-4H-1,2,4-oxadiazin-5-ol]
- chromatographic logP (method [a]: LC-UV, acidic range, 0.1% formic acid in water and acetonitrile, Table 23, compounds of formula (14)): 1.59

SMILES: Cc1ccc(CC(CON)NC(=O)c2cc(Cl)nnc2Cl)c(C)c1 (racemic) [6-02, 3,6-dichloro-N-[rac-1-(aminooxymethyl)-2-(2,4-dimethylphenyl)ethyl]pyridazine-4-carboxamide]
- chromatographic logP [4]: 1.93

SMILES: COc1ccc(C(=O)C(F)(F)ON=C(N)c2cc(C)nnc2Oc2cccc(C(F)(F)F)c2)cc1 [12-14, N′-[1,1-difluoro-2-(4-methoxyphenyl)-2-oxo-ethoxy]-6-methyl-3-[3-(trifluoro-methyl)phenoxy]pyridazine-4-carboxamidine]
- chromatographic logP [2]: 3.13

SMILES: Cc1ccc(CC(CON2C(=O)c3ccccc3C2=O)NC(=O)c2cc(Cl)nnc2Oc2cccc(C(F)(F)F)c2)c(C)c1 (racemic) [3-16, 6-chloro-N-[rac-1-[(2,4-dimethylphenyl)methyl]-2-(1,3-dioxoisoindolin-2-yl)oxy-ethyl]-3-[3-(trifluoromethyl)phenoxy]pyridazine-4-carboxamide]
- chromatographic logP [5]: 5

- LogP [6]: 2.21^[a]
SMILES: NC(=NO)c1cc(Cl)nnc1Oc1cccc(Br)c1F [10-05]

- LogP [1]: 2.33^[a]
SMILES: CON(C)C(=O)c1cc(C)nnc1Oc1cccc(C(F)(F)F)c1 [1-03]

SMILES: Cc1ccc(CC(CON2C(=O)c3ccccc3C2=O)NC(=O)c2cc(Cl)nnc2Cl)c(C)c1 (racemic) [6-01, 3,6-dichloro-N-[rac-1-[(2,4-dimethylphenyl)methyl]-2-(1,3-dioxoisoindolin-2-yl)oxy-ethyl]pyridazine-4-carboxamide]
- chromatographic logP [4]: 3.72

- LogP [6]: 1.91^[a]
SMILES: NC(=NO)c1cc(Cl)nnc1Oc1cccc(C(F)F)c1F [10-09]

SMILES: Cc1ccc(CC(CCl)NC(=O)c2cc(Cl)nnc2Oc2cccc(C(F)(F)F)c2)c(C)c1 (centres unmarked) [21-01, 6-chloro-N-[1-(chloromethyl)-2-(2,4-dimethylphenyl)ethyl]-3-[3-(trifluoro-methyl)phenoxy]pyridazine-4-carboxamide]
- chromatographic logP (method [a], Table 33, compounds of formula (21)): 5

SMILES: Cc1ccc(OCC(CON)NC(=O)c2cc(C)nnc2Oc2cccc(C(F)(F)F)c2)c(C)c1 (racemic) [4-33, 6-methyl-N-[rac-1-(aminooxymethyl)-2-(2,4-dimethylphenoxy)ethyl]-3-[3-(trifluoromethyl)phenoxy]pyridazine-4-carboxamide]
- chromatographic logP [7]: 3.13

- LogP [6]: 2.19^[a]
SMILES: NC(=NO)c1cc(Cl)nnc1Oc1cccc(C2CC2)c1 [10-08]

SMILES: Cc1ccc(CC(CCl)NC(=NO)c2cc(Cl)nnc2Oc2cccc(C(F)(F)F)c2)c(C)c1 (centres unmarked) [20-01, 6-chloro-N-[1-(chloromethyl)-2-(2,4-dimethylphenyl)ethyl]-N′-hydroxy-3-[3-(trifluoromethyl)phenoxy]pyridazine-4-carboxamidine]
- chromatographic logP (method [a], Table 29, compounds of formula (20), read-out: Log P): 4.34

SMILES: Cc1ccc(CC(CON)NC(=O)c2cc(Cl)nnc2Oc2cccc(C(F)(F)F)c2)c(C)c1 (racemic) [4-17, 6-chloro-N-[rac-1-(aminooxymethyl)-2-(2,4-dimethylphenyl)ethyl]-3-[3-(trifluoro-methyl)phenoxy]pyridazine-4-carboxamide]
- chromatographic logP [7]: 3.37

- LogP [6]: 2.34^[a]
SMILES: NC(=NO)c1cc(Cl)nnc1Oc1cccc(C2CC2)c1F [10-07]

SMILES: O=Cc1cc(Cl)nnc1Oc1cccc(C(F)(F)F)c1 [16-01, 6-chloro-3-[3-(trifluoromethyl)phenoxy]pyridazine-4-carbaldehyde]
- chromatographic logP (method [a]: LC-UV, acidic range, 0.1% formic acid in water and acetonitrile, Table 25, compound of formula (16)): 2.04

- LogP [6]: 2.00^[a]
SMILES: NC(=NO)c1cc(Cl)nnc1Oc1cccc(Cl)c1 [10-04]

- chromatographic logP (reversed phase HPLC column, method [a]: LC-UV, acidic range, 0.1% formic acid in water and acetonitrile, Table 3, compounds of formula (1)): 2.9
SMILES: CON(C)C(=O)c1cc(Cl)nnc1Oc1cccc(C(F)(F)F)c1 [1-07, 6-chloro-N-methoxy-N-methyl-3-[3-(trifluoromethyl)phenoxy]pyridazine-4-carboxamide]

- LogP [3]: 2.75^[a]
SMILES: COc1cccc(Oc2nnc(Cl)cc2C#N)c1 [9-08]

SMILES: Cc1cc(C(N)=NO)c(Oc2cccc(C(F)(F)F)c2)nn1 [10-02, N′-hydroxy-6-methyl-3-[3-(trifluoromethyl)phenoxy]pyridazine-4-carboxamidine]
- chromatographic logP [6]: 1.69

- chromatographic logP (reversed phase HPLC column, method [a]: LC-UV, acidic range, 0.1% formic acid in water and acetonitrile, Table 5, compounds of formula (2)): 1.7
SMILES: Cc1ccc(OCC(N)CON2C(=O)c3ccccc3C2=O)c(C)c1 (racemic) [2-12, 2-[rac-2-amino-3-(2,4-dimethylphenoxy)propoxy]isoindoline-1,3-dione 2,2,2-trifluoroacetate]

SMILES: Cc1ccc(OCC(CON2C(=O)c3ccccc3C2=O)NC(=O)c2cc(C)nnc2Oc2cccc(C(F)(F)F)c2)c(C)c1 (racemic) [3-33, 6-methyl-N-[rac-1-[(2,4-dimethylphenoxy)methyl]-2-(1,3-dioxoisoindolin-2-yl)oxy-ethyl]-3-[3-(trifluoromethyl)phenoxy]pyridazine-4-carboxamide]
- chromatographic logP [5]: 4.56
